Key:
[1] = system: Mice with Type II Collagen-Induced Arthritis; experiment: Effect of N-acetylhydroxyproline in mice with type II collagen-induced arthritis (arthritis score, preventive feeding); format: in vivo, DBA/1J mice; conditions: for Score of arthritis: mean±SE, N=20, score 0-16 points
Description: Effect of N-acetylhydroxyproline in Mice with Type II Collagen-Induced Arthritis
It is known that arthritis is induced in DBA/1J mice (Charles River) by administering type II collagen two times.
As the first administration of type II collagen, a solution prepared by mixing an equal amount of type II collagen [Collagen Gijutsu Kenshu-Kai (MCK)] and Freund's complete adjuvant (Iatron) and emulsifying the mixture using a homogenizer was intradermally administered to 6-week old male DBA/1J mice (Charles River) in an amount of 100 μl per one animal.
At day 21 after the first administration of type II collagen, as the second administration of type II collagen, a solution prepared by mixing an equal amount of type II collagen and Freund's complete adjuvant and emulsifying the mixture using a homogenizer in a similar manner was intradermally administered to the animals in an amount of 100 μl per one animal. In this manner, arthritis was induced in mice.
Starting on the day of the first administration of type II collagen, the mice were bred by feeding a powder feed, CE-2 (CLEA Japan), containing the addition of 0.02, 0.1 or 0.5% (hereinafter % refers to wt %) of N-acetylhydroxyproline (Kyowa Hakko Kogyo). As control, a group of mice were fed with the powder feed CE-2 containing no additive. At days 23, 27, 30, 33, 36, 40 and 42 after the first administration of type II collagen, the extent of the onset of arthritis was scored according to the following indices.
Scoring was carried out by applying 0-4 points with respect to […] of mice: 0: no symptom; 1: swelling of one finger or swelling (slight) of ankles; 2: swelling of 1-3 fingers or swelling of ankles; 3: swelling of 3-5 fingers plus swelling of ankles; and 4: swelling of all the fingers plus swelling of ankles. Each mouse was scored the total of the points of 4 paws, namely, 0-16 points. Twenty mice each were subjected to observation with respect to each of the conditions.
In the table, the figures show the score under different treatment conditions, which is given as mean±SE (N=20).
In the table, “no treatment” means no treatment with type II collagen.

[2] = system: animal model for arthritis; conditions: administration after induction of arthritis; cited from earlier work
[3] = system: systemic injury of ear and tail; chondral injury at joints; conditions: in vivo; cited from earlier work

## CC(=O)N1C[C@H](O)C[C@H]1C(=O)O [N-Acetylhydroxyproline, N-acetylhydroxyproline]
[1]; 0.02% in powder feed CE-2
  Rising of the score of arthritis compared with feed containing no additive: suppressive tendency
[1]; 0.02% in powder feed CE-2, day 23
  Score of arthritis: 0.0 ± 0.0
[1]; 0.02% in powder feed CE-2, day 27
  Score of arthritis: 4.2 ± 0.8
[1]; 0.02% in powder feed CE-2, day 30
  Score of arthritis: 7.6 ± 0.9
[1]; 0.02% in powder feed CE-2, day 33
  Score of arthritis: 9.3 ± 0.8
[1]; 0.02% in powder feed CE-2, day 36
  Score of arthritis: 9.7 ± 0.9
[1]; 0.02% in powder feed CE-2, day 40
  Score of arthritis: 10.0 ± 0.8
[1]; 0.02% in powder feed CE-2, day 42
  Score of arthritis: 10.1 ± 0.9
[1]; 0.02% in powder feed CE-2 from first collagen administration, day 0
  Score of arthritis: 0.0 ± 0.0
[1]; 0.1% in powder feed CE-2
  Rising of the score of arthritis compared with feed containing no additive: suppressive tendency
[1]; 0.1% in powder feed CE-2, day 23
  Score of arthritis: 0.1 ± 0.1
[1]; 0.1% in powder feed CE-2, day 27
  Score of arthritis: 4.6 ± 0.9
[1]; 0.1% in powder feed CE-2, day 30
  Score of arthritis: 7.3 ± 1.0
[1]; 0.1% in powder feed CE-2, day 33
  Score of arthritis: 8.3 ± 1.1
[1]; 0.1% in powder feed CE-2, day 36
  Score of arthritis: 8.6 ± 1.0
[1]; 0.1% in powder feed CE-2, day 40
  Score of arthritis: 8.5 ± 1.0
[1]; 0.1% in powder feed CE-2, day 42
  Score of arthritis: 8.7 ± 1.0
[1]; 0.1% in powder feed CE-2 from first collagen administration, day 0
  Score of arthritis: 0.0 ± 0.0
[1]; 0.5% in powder feed CE-2
  Scores of arthritis compared with control (feed containing no addition): significantly low
[1]; 0.5% in powder feed CE-2, day 23
  Score of arthritis: 0.0 ± 0.0
[1]; 0.5% in powder feed CE-2, day 27
  Score of arthritis: 3.8 ± 0.7
[1]; 0.5% in powder feed CE-2, day 30
  Score of arthritis: 5.9 ± 0.9
[1]; 0.5% in powder feed CE-2, day 33
  Score of arthritis: 7.7 ± 0.8
[1]; 0.5% in powder feed CE-2, day 36
  Score of arthritis: 8.1 ± 0.8
[1]; 0.5% in powder feed CE-2, day 40
  Score of arthritis: 8.4 ± 0.7
[1]; 0.5% in powder feed CE-2, day 42
  Score of arthritis: 8.5 ± 0.7
[1]; 0.5% in powder feed CE-2 from first collagen administration, day 0
  Score of arthritis: 0.0 ± 0.0
[1]; taken previously, before the onset of arthritis
  Onset of arthritis: could be suppressed
[2]
  Aggravation of arthritis: can prevent aggravation of arthritis
[3]
  Effect on chondral injury at joints: no effect
  Effect on systemic injury of ear and tail: shows a therapeutic effect

Reference: patent US20040048772A1, “Preventives for arthritis” (priority 2001, published 2004)
